Experimental data reported in PubChem BioAssay (NCI).
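96-well plates; 48 h exposure; 5 concentrations. Endpoints by linear interpolation between flanking doses. Not reached: highest tested concentration assigned. GI50 is the concentration that inhibits growth by half. At the TGI there is no net growth.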

Assays:
Assay in all cases: inhibition of tumour cell growth, NCI panel, 48 h
M14 melanoma = test system: M14 melanoma
OVCAR-8 ovarian = test system: OVCAR-8 ovarian
HCT-15 colon = test system: HCT-15 colon
HT29 colon = test system: HT29 colon
SNB-78 CNS = test system: SNB-78 CNS
SNB-75 CNS = test system: SNB-75 CNS
COLO 205 colon = test system: COLO 205 colon
CAKI-1 renal = test system: CAKI-1 renal
UACC-62 melanoma = test system: UACC-62 melanoma
DU-145 prostate = test system: DU-145 prostate
MOLT-4 leukemia = test system: MOLT-4 leukemia
A498 renal = test system: A498 renal
SF-268 CNS = test system: SF-268 CNS
U251 CNS = test system: U251 CNS
RPMI-8226 leukemia = test system: RPMI-8226 leukemia
CCRF-CEM leukemia = test system: CCRF-CEM leukemia
LXFL 529 NSCLC = test system: LXFL 529 NSCLC
NCI-H226 lung = test system: NCI-H226 lung
UACC-257 melanoma = test system: UACC-257 melanoma
SK-MEL-28 melanoma = test system: SK-MEL-28 melanoma
SF-539 CNS = test system: SF-539 CNS
DLD-1 colon = test system: DLD-1 colon
SR leukemia = test system: SR leukemia
786-0 renal = test system: 786-0 renal
NCI-H23 lung = test system: NCI-H23 lung
OVCAR-5 ovarian = test system: OVCAR-5 ovarian
RXF-631 renal = test system: RXF-631 renal
TK-10 renal = test system: TK-10 renal
HCT-116 colon = test system: HCT-116 colon
HL-60(TB) leukemia = test system: HL-60(TB) leukemia
SK-MEL-5 melanoma = test system: SK-MEL-5 melanoma
SW-620 colon = test system: SW-620 colon
NCI-H460 lung = test system: NCI-H460 lung
SK-OV-3 ovarian = test system: SK-OV-3 ovarian
SN12C renal = test system: SN12C renal
HOP-18 NSCLC = test system: HOP-18 NSCLC
IGROV1 ovarian = test system: IGROV1 ovarian
SK-MEL-2 melanoma = test system: SK-MEL-2 melanoma
XF 498 CNS = test system: XF 498 CNS
SNB-19 CNS = test system: SNB-19 CNS
OVCAR-4 ovarian = test system: OVCAR-4 ovarian
SF-295 CNS = test system: SF-295 CNS
UO-31 renal = test system: UO-31 renal
A549 NSCLC = test system: A549 NSCLC
OVCAR-3 ovarian = test system: OVCAR-3 ovarian
KM12 colon = test system: KM12 colon
MALME-3M melanoma = test system: MALME-3M melanoma
RXF 393 renal = test system: RXF 393 renal
HCC-2998 colon = test system: HCC-2998 colon
LOX IMVI melanoma = test system: LOX IMVI melanoma
ACHN renal = test system: ACHN renal
KM20L2 colon = test system: KM20L2 colon
NCI-H522 lung = test system: NCI-H522 lung
HOP-92 NSCLC = test system: HOP-92 NSCLC
K-562 leukemia = test system: K-562 leukemia
M19-MEL melanoma = test system: M19-MEL melanoma
DMS 273 small cell lung = test system: DMS 273 small cell lung
DMS 114 small cell lung = test system: DMS 114 small cell lung
EKVX NSCLC = test system: EKVX NSCLC
MDA-MB-231 breast = test system: MDA-MB-231 breast
MDA-MB-435 = test system: MDA-MB-435
T-47D breast = test system: T-47D breast
NCI/ADR-RES ovarian = test system: NCI/ADR-RES ovarian
HS 578T breast = test system: HS 578T breast
BT-549 breast = test system: BT-549 breast
PC-3 prostate = test system: PC-3 prostate
MCF7 breast = test system: MCF7 breast
HOP-62 NSCLC = test system: HOP-62 NSCLC

C=CCOCCCC(=O)C(=[N+]=[N-])C(=O)OC
TGI (M14 melanoma): > 100 µM
TGI (OVCAR-8 ovarian): > 100 µM
TGI (HCT-15 colon): > 100 µM
TGI (HT29 colon): > 100 µM
TGI (SNB-78 CNS): > 100 µM
TGI (SNB-75 CNS): > 100 µM
TGI (COLO 205 colon): > 100 µM
TGI (CAKI-1 renal): > 100 µM
TGI (UACC-62 melanoma): > 100 µM
TGI (DU-145 prostate): > 100 µM
TGI (MOLT-4 leukemia): > 100 µM
TGI (A498 renal): > 100 µM
TGI (SF-268 CNS): > 100 µM
TGI (U251 CNS): > 100 µM
TGI (RPMI-8226 leukemia): > 100 µM
TGI (CCRF-CEM leukemia): > 100 µM
TGI (LXFL 529 NSCLC): > 100 µM
TGI (NCI-H226 lung): > 100 µM
TGI (UACC-257 melanoma): > 100 µM
TGI (SK-MEL-28 melanoma): > 100 µM
TGI (SF-539 CNS): > 100 µM
TGI (DLD-1 colon): > 100 µM
TGI (SR leukemia): > 100 µM
TGI (786-0 renal): > 100 µM
TGI (NCI-H23 lung): > 100 µM
TGI (OVCAR-5 ovarian): > 100 µM
TGI (RXF-631 renal): > 100 µM
TGI (TK-10 renal): > 100 µM
TGI (HCT-116 colon): > 100 µM
TGI (HL-60(TB) leukemia): > 100 µM
TGI (SK-MEL-5 melanoma): > 100 µM
TGI (SW-620 colon): > 100 µM
TGI (NCI-H460 lung): > 100 µM
TGI (SK-OV-3 ovarian): > 100 µM
TGI (SN12C renal): > 100 µM
TGI (HOP-18 NSCLC): > 100 µM
TGI (IGROV1 ovarian): > 100 µM
TGI (SK-MEL-2 melanoma): > 100 µM
TGI (XF 498 CNS): > 100 µM
TGI (SNB-19 CNS): > 100 µM
TGI (OVCAR-4 ovarian): > 100 µM
TGI (SF-295 CNS): > 100 µM
TGI (UO-31 renal): > 100 µM
TGI (A549 NSCLC): > 100 µM
TGI (OVCAR-3 ovarian): > 100 µM
TGI (KM12 colon): > 100 µM
TGI (MALME-3M melanoma): > 100 µM
TGI (RXF 393 renal): > 100 µM
TGI (HCC-2998 colon): > 100 µM
TGI (LOX IMVI melanoma): > 100 µM
TGI (ACHN renal): > 100 µM
TGI (KM20L2 colon): > 100 µM
TGI (NCI-H522 lung): > 100 µM
TGI (HOP-92 NSCLC): > 100 µM
TGI (K-562 leukemia): > 100 µM
TGI (M19-MEL melanoma): > 100 µM

O=C1CCC(NC(=O)Cc2ccc(O)cc2)C(=O)N1 (configuration not stated)
TGI (M14 melanoma): > 2500 µM
TGI (OVCAR-8 ovarian): > 2500 µM
TGI (HCT-15 colon): > 2500 µM
TGI (HT29 colon): > 2500 µM
TGI (SNB-78 CNS): > 2500 µM
TGI (DMS 273 small cell lung): > 2500 µM
TGI (SNB-75 CNS): > 2500 µM
TGI (DMS 114 small cell lung): > 2500 µM
TGI (COLO 205 colon): > 2500 µM
TGI (CAKI-1 renal): > 2500 µM
TGI (UACC-62 melanoma): > 2500 µM
TGI (A498 renal): > 2500 µM
TGI (SF-268 CNS): > 2500 µM
TGI (EKVX NSCLC): > 2500 µM
TGI (U251 CNS): > 2500 µM
TGI (LXFL 529 NSCLC): > 2500 µM
TGI (NCI-H226 lung): > 2500 µM
TGI (UACC-257 melanoma): > 2500 µM
TGI (SK-MEL-28 melanoma): > 2500 µM
TGI (NCI-H23 lung): > 2500 µM
TGI (OVCAR-5 ovarian): > 2500 µM
TGI (RXF-631 renal): > 2500 µM
TGI (TK-10 renal): > 2500 µM
TGI (HCT-116 colon): > 2500 µM
TGI (SK-MEL-5 melanoma): > 2500 µM
TGI (SW-620 colon): > 2500 µM
TGI (NCI-H460 lung): > 2500 µM
TGI (SK-OV-3 ovarian): > 2500 µM
TGI (SN12C renal): > 2500 µM
TGI (HOP-18 NSCLC): > 2500 µM
TGI (IGROV1 ovarian): > 2500 µM
TGI (XF 498 CNS): > 2500 µM
TGI (SNB-19 CNS): > 2500 µM
TGI (OVCAR-4 ovarian): > 2500 µM
TGI (SF-295 CNS): > 2500 µM
TGI (UO-31 renal): > 2500 µM
TGI (A549 NSCLC): > 2500 µM
TGI (OVCAR-3 ovarian): > 2500 µM
TGI (KM12 colon): > 2500 µM
TGI (LOX IMVI melanoma): > 2500 µM
TGI (ACHN renal): > 2500 µM
TGI (KM20L2 colon): > 2500 µM
TGI (NCI-H522 lung): > 2500 µM
TGI (HOP-92 NSCLC): > 2500 µM
TGI (M19-MEL melanoma): > 2500 µM

CC(=O)C1=C(O)C2(O)C(=O)c3c(c(C)c4ccc(C)c(O)c4c3O)CC2C(N)C1=O (configuration not stated)
GI50 (MDA-MB-231 breast): 0.73 µM
TGI (MDA-MB-231 breast): 4.99 µM
GI50 (MDA-MB-435): 1.11 µM
TGI (MDA-MB-435): 4.86 µM
TGI (M14 melanoma): 23.1 µM
TGI (OVCAR-8 ovarian): 10.7 µM
GI50 (T-47D breast): 2.33 µM
TGI (T-47D breast): 30.5 µM
GI50 (NCI/ADR-RES ovarian): 1.89 µM
TGI (NCI/ADR-RES ovarian): 13.7 µM
TGI (HCT-15 colon): 9.99 µM
TGI (HT29 colon): 12.3 µM
GI50 (HS 578T breast): 1.99 µM
TGI (HS 578T breast): 9.48 µM
TGI (DMS 273 small cell lung): 5.54 µM
TGI (SNB-75 CNS): 16.7 µM
TGI (DMS 114 small cell lung): 7.17 µM
TGI (COLO 205 colon): 3.34 µM
TGI (CAKI-1 renal): 7.99 µM
TGI (UACC-62 melanoma): 5.25 µM
GI50 (DU-145 prostate): 2.41 µM
TGI (DU-145 prostate): 14.7 µM
GI50 (BT-549 breast): 0.762 µM
TGI (BT-549 breast): 13.6 µM
TGI (MOLT-4 leukemia): 8.86 µM
TGI (A498 renal): 8.45 µM
TGI (SF-268 CNS): 13.6 µM
TGI (EKVX NSCLC): 12.2 µM
TGI (U251 CNS): 7.82 µM
TGI (RPMI-8226 leukemia): 12.8 µM
TGI (CCRF-CEM leukemia): 18.6 µM
TGI (LXFL 529 NSCLC): 10.2 µM
TGI (NCI-H226 lung): 8.2 µM
TGI (UACC-257 melanoma): 11.9 µM
TGI (SK-MEL-28 melanoma): 13.3 µM
TGI (SF-539 CNS): 14.8 µM
TGI (DLD-1 colon): 11.7 µM
TGI (SR leukemia): 4.47 µM
TGI (786-0 renal): 16.8 µM
TGI (NCI-H23 lung): 7.14 µM
GI50 (PC-3 prostate): 0.754 µM
TGI (PC-3 prostate): 11.7 µM
TGI (OVCAR-5 ovarian): 14 µM
TGI (RXF-631 renal): 11.2 µM
TGI (TK-10 renal): 8.86 µM
TGI (HCT-116 colon): 14 µM
TGI (HL-60(TB) leukemia): 5.07 µM
TGI (SK-MEL-5 melanoma): 3.85 µM
TGI (SW-620 colon): 23.6 µM
GI50 (MCF7 breast): 2.84 µM
TGI (MCF7 breast): 18.3 µM
TGI (NCI-H460 lung): 9.2 µM
TGI (SK-OV-3 ovarian): 12.6 µM
TGI (SN12C renal): 9.79 µM
TGI (HOP-18 NSCLC): 13.4 µM
TGI (IGROV1 ovarian): 13 µM
TGI (SK-MEL-2 melanoma): > 21 µM
TGI (XF 498 CNS): 5.09 µM
TGI (SNB-19 CNS): 23.9 µM
TGI (OVCAR-4 ovarian): 19 µM
TGI (SF-295 CNS): 5.6 µM
TGI (UO-31 renal): 11.1 µM
TGI (A549 NSCLC): 11.5 µM
TGI (OVCAR-3 ovarian): 13.2 µM
TGI (KM12 colon): 8.29 µM
TGI (MALME-3M melanoma): 4.74 µM
TGI (RXF 393 renal): 20 µM
TGI (HCC-2998 colon): 15 µM
TGI (HOP-62 NSCLC): 10.7 µM
TGI (LOX IMVI melanoma): 11.4 µM
TGI (ACHN renal): 7.19 µM
TGI (KM20L2 colon): 14.7 µM
TGI (NCI-H522 lung): > 29.5 µM
TGI (HOP-92 NSCLC): 6.2 µM
TGI (K-562 leukemia): 12.2 µM
TGI (M19-MEL melanoma): 11 µM
